Results from patent US20260325685A1, “Radiopharmaceutical Compositions Targeting Carbonic Anhydrase IX and Uses Thereof” (RayzeBio, Inc., priority 2023, published 2026).
Like-named read-outs stand apart in the source and are kept apart here.

Assays:
human CA-IX = biological target: T1, human CA-IX (Homo sapiens, UniProt Q16790); test: Surface Plasmon Resonance (SPR) binding kinetics to recombinant human CA-IX (Biacore 8K, single-cycle kinetics, 1:1 binding model)
T1 construct: purchased Acro CA9-H82E3
Procedure, shortened: (§1)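 At 25° C, compound was injected at nine concentrations from 100 to 0.39 nM (PBS-P+ pH 7.4, 1% DMSO) over streptavidin-captured recombinant human CA-IX or CA-XII (1200-1800 RU). Association 120 s, dissociation 1200 s, single-cycle format; association and dissociation constants from 1:1 kinetic fits.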

human CA-XII = biological target: T2, human CA-XII (Homo sapiens, UniProt O43570); test: Surface Plasmon Resonance (SPR) binding kinetics to recombinant human CA-XII (Biacore 8K, single-cycle kinetics, 1:1 binding model)
T2 construct: purchased Creative BioMart CA12-261H
Procedure, shortened: as §1

[1] = read-out: CAIX KD; Chelated Metal: Lu-175; SPR, 25° C., pH 7.4
[2] = read-out: CAXII KD, Chelated Metal: Lu-175, 25° C., pH 7.4
[3] = Chelated Metal: Cu (cold); SPR, 25° C., pH 7.4; read-out: CAIX KD
[4] = Chelated Metal: Cu (cold), 25° C., pH 7.4, read-out: CAXII KD
[5] = Chelated Metal: Lu-175; SPR, 25° C., pH 7.4; read-out: CAIX KD
[6] = Chelated Metal: Lu-175, 25° C., pH 7.4, read-out: CAXII KD

T2 sequence (O43570 25-354): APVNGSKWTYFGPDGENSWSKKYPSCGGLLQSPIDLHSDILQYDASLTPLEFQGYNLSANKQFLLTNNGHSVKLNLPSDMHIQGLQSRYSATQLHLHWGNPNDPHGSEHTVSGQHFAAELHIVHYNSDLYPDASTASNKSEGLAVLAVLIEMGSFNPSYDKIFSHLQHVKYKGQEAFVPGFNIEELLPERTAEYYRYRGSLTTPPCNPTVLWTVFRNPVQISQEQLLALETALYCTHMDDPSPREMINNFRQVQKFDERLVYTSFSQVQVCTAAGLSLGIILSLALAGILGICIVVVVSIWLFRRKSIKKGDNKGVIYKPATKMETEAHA

SMILES	Kd (human CA-IX; [5])	Kd (human CA-XII; [6])	also measured
CC(CCC(=O)N[C@@H](CC(=O)N[C@@H](CC(=O)N[C@@H](CCCCn1nnc(C(=O)O)c1C12CCC(C(=O)Nc3nnc(S(N)(=O)=O)s3)(CC1)CC2)C(=O)NCCOCCOCCNC(=O)CN1CCN(CC(=O)O)CCN(CC(=O)O)CCN(CC(=O)O)CC1)C(=O)O)C(=O)O)(c1ccc(O)cc1)c1ccc(O)cc1.[Lu+3] [Compound 122]			Kd (human CA-IX; [1]): 1 to 2.5 nM; Kd (human CA-XII; [2]): 1 to 2.5 nM
CC(CCC(=O)N[C@@H](CC(=O)N[C@@H](CC(=O)N1CCN(C(=O)NCCOCCNC(=O)CN2CCN(CC(=O)O)CCN(CC(=O)O)CCN(CC(=O)O)CC2)C[C@@H]1CCCCn1cc(CCCC(=O)Nc2nnc(S(N)(=O)=O)s2)nn1)C(=O)O)C(=O)O)(c1ccc(O)cc1)c1ccc(O)cc1.[Lu+3] [Compound 123]			Kd (human CA-IX; [1]): 1 to 2.5 nM; Kd (human CA-XII; [2]): 2.5 to 10 nM
CC(CCC(=O)N[C@@H](CC(=O)N[C@@H](CC(=O)N1CCN(C(=O)OCCOCCNC(=O)CN2CCN(CC(=O)O)CCN(CC(=O)O)CCN(CC(=O)O)CC2)C[C@@H]1CCCCn1cc(CCCC(=O)Nc2nnc(S(N)(=O)=O)s2)nn1)C(=O)O)C(=O)O)(c1ccc(O)cc1)c1ccc(O)cc1.[Lu+3] [Compound 124]			Kd (human CA-IX; [1]): 2.5 to 10 nM; Kd (human CA-XII; [2]): 2.5 to 10 nM
CC(CCCC(=O)N1CCC(C(N)=O)(C(=O)NCC(=O)N2CCN(C(=O)CN3CCN(CC(=O)O)CCN(CC(=O)O)CC3)C[C@@H]2C(=O)NCCn2cc(C34CC(C(=O)Nc5nnc(S(N)(=O)=O)s5)(C3)C4)nn2)CC1)(c1ccc(O)cc1)c1ccc(O)cc1.[Cu+2] [Compound 126.1]			Kd (human CA-IX; [3]): < 1 nM; Kd (human CA-XII; [4]): > 10 nM
NS(=O)(=O)c1nnc(NC(=O)C23CC(c4cn(CCNC(=O)[C@@H]5CN(C(=O)CN6CCN(CC(=O)O)CCN(CC(=O)O)CC6)CCN5C(=O)C[C@H](NC(=O)C[C@H](NC(=O)c5ccc(C6CC6)cn5)C(=O)O)C(=O)O)nn4)(C2)C3)s1.[Cu+2] [Compound 126.2]			Kd (human CA-IX; [3]): < 1 nM; Kd (human CA-XII; [4]): 2.5 to 10 nM
CC(CCCC(=O)N1CCOC[C@H]1C(=O)N[C@@H](CC(=O)N1CCN(C(=O)CN2CCN(CC(=O)O)CCN(CC(=O)O)CC2)C[C@@H]1C(=O)NCCn1cc(C23CC(C(=O)Nc4nnc(S(N)(=O)=O)s4)(C2)C3)nn1)C(=O)O)(c1ccc(O)cc1)c1ccc(O)cc1.[Cu+2] [Compound 126.3]			Kd (human CA-IX; [3]): < 1 nM; Kd (human CA-XII; [4]): > 10 nM
CC(CCC(=O)N[C@@H](CC(=O)N[C@@H](CC(=O)N1CCN(C(=O)CN2CCN(CC(=O)O)CCN(CC(=O)O)CC2)C[C@H]1C(=O)NCCn1cc(C23CC(C(=O)Nc4nnc(S(N)(=O)=O)s4)(C2)C3)nn1)C(=O)O)C(=O)O)(c1ccc(O)cc1)c1ccc(O)cc1.[Cu+2] [Compound 126.4]			Kd (human CA-IX; [3]): < 1 nM; Kd (human CA-XII; [4]): > 10 nM
NS(=O)(=O)c1nnc(NC(=O)C23CC(c4cn(CCNC(=O)[C@@H]5CN(C(=O)CN6CCN(CC(=O)O)CCN(CC(=O)O)CC6)CCN5C(=O)C[C@H](NC(=O)C[C@H](NC(=O)CC5CC6(CCC6)C5)C(=O)O)C(=O)O)nn4)(C2)C3)s1.[Cu+2] [Compound 126.5]			Kd (human CA-IX; [3]): < 1 nM; Kd (human CA-XII; [4]): 1 to 2.5 nM
CC(CCCC(=O)N1CCC(C(N)=O)(C(=O)NCC(=O)N2CCN(C(=O)CN3CCN(CC(=O)O)CCN(CC(=O)O)CC3)C[C@H]2C(=O)NCCn2cc(C34CC(C(=O)Nc5nnc(S(N)(=O)=O)s5)(C3)C4)nn2)CC1)(c1ccc(O)cc1)c1ccc(O)cc1.[Cu+2] [Compound 126]			Kd (human CA-IX; [3]): < 1 nM; Kd (human CA-XII; [4]): > 10 nM
CC(CCCC(=O)N1CCC(C(N)=O)(C(=O)NCC(=O)N2CCN(C(=O)CC[C@H](C(=O)O)N3CCN(CC(=O)O)CCN(CC(=O)O)CCN(CC(=O)O)CC3)C[C@H]2C(=O)NCCn2cc(C34CC(C(=O)Nc5nnc(S(N)(=O)=O)s5)(C3)C4)nn2)CC1)(c1ccc(O)cc1)c1ccc(O)cc1.[Lu+3] [Compound 127.1]	< 1 nM	> 10 nM	
CC(CCCC(=O)N1CCC(C(N)=O)(C(=O)NCC(=O)N2CCN(C(=O)CC[C@H](C(=O)O)N3CCN(CC(=O)O)CCN(CC(=O)O)CCN(CC(=O)O)CC3)C[C@@H]2C(=O)NCCn2cc(C34CC(C(=O)Nc5nnc(S(N)(=O)=O)s5)(C3)C4)nn2)CC1)(c1ccc(O)cc1)c1ccc(O)cc1.[Lu+3] [Compound 127.2]	< 1 nM	> 10 nM	
CC(CCCC(=O)N1CCC(C(N)=O)(C(=O)NCC(=O)N2CCN(C(=O)CCC(C(=O)O)N3CCN(CC(=O)O)CCN(CC(=O)O)CC3)C[C@@H]2C(=O)NCCn2cc(C34CC(C(=O)Nc5nnc(S(N)(=O)=O)s5)(C3)C4)nn2)CC1)(c1ccc(O)cc1)c1ccc(O)cc1.[Cu+2] (stereo partly drawn) [Compound 127.3]			Kd (human CA-IX; [3]): < 1 nM; Kd (human CA-XII; [4]): > 10 nM
CC(CCCC(=O)N1CCC(C(N)=O)(C(=O)NCC(=O)NC2(C(=O)NCCn3cc(C45CC(C(=O)Nc6nnc(S(N)(=O)=O)s6)(C4)C5)nn3)CCN(C(=O)CC[C@H](C(=O)O)N3CCN(CC(=O)O)CCN(CC(=O)O)CCN(CC(=O)O)CC3)CC2)CC1)(c1ccc(O)cc1)c1ccc(O)cc1.[Lu+3] [Compound 127.4]	< 1 nM	> 10 nM	
CC(CCCC(=O)N1CCC(C(N)=O)(C(=O)NCC(=O)NC2(C(=O)NCCn3cc(C45CC(c6cn7nc(S(N)(=O)=O)sc7n6)(C4)C5)nn3)CCN(C(=O)CC[C@H](C(=O)O)N3CCN(CC(=O)O)CCN(CC(=O)O)CCN(CC(=O)O)CC3)CC2)CC1)(c1ccc(O)cc1)c1ccc(O)cc1.[Lu+3] [Compound 127.5]	< 1 nM	2.5 to 10 nM	
CC(CCCC(=O)N1CCC(C(N)=O)(C(=O)NCC(=O)NC2(C(=O)NCCn3cc(C45CCC(c6cn7nc(S(N)(=O)=O)sc7n6)(CC4)CC5)nn3)CCN(C(=O)CC[C@H](C(=O)O)N3CCN(CC(=O)O)CCN(CC(=O)O)CCN(CC(=O)O)CC3)CC2)CC1)(c1ccc(O)cc1)c1ccc(O)cc1.[Lu+3] [Compound 127.6]	< 1 nM	< 1 nM	
Cc1cc(C(=O)Nc2nnc(S(N)(=O)=O)s2)ccc1-c1cn(CCNC(=O)C2(NC(=O)CNC(=O)C3(C(N)=O)CCN(C(=O)CCCC(C)(c4ccc(O)cc4)c4ccc(O)cc4)CC3)CCN(C(=O)CC[C@H](C(=O)O)N3CCN(CC(=O)O)CCN(CC(=O)O)CCN(CC(=O)O)CC3)CC2)nn1.[Lu+3] [Compound 127.7]	< 1 nM	> 10 nM	
CC(CCCC(=O)N1CCC(C(N)=O)(C(=O)NCC(=O)N2CCN(C(=O)CC[C@H](C(=O)O)N3CCN(CC(=O)O)CCN(CC(=O)O)CCN(CC(=O)O)CC3)C[C@H]2C(=O)NCCn2cc(C34CC(C(=O)Nc5nnc(S(N)(=O)=O)s5)(C3)C4)nn2)CC1)(c1ccc(O)c(F)c1)c1ccc(O)c(F)c1.[Lu+3] [Compound 127.8]	< 1 nM	> 10 nM	
CC(CCCC(=O)N1CCC(C(N)=O)(C(=O)NCC(=O)NC2(C(=O)NCCn3cc(COc4ccc5nc(S(N)(=O)=O)sc5c4)nn3)CCN(C(=O)CC[C@H](C(=O)O)N3CCN(CC(=O)O)CCN(CC(=O)O)CCN(CC(=O)O)CC3)CC2)CC1)(c1ccc(O)cc1)c1ccc(O)cc1.[Lu+3] [Compound 127.9]	< 1 nM	> 10 nM	
CC(CCC(=O)N[C@@H](CC(=O)N[C@@H](CC(=O)N1CCN(C(=O)CC[C@H](C(=O)O)N2CCN(CC(=O)O)CCN(CC(=O)O)CCN(CC(=O)O)CC2)C[C@H]1C(=O)NCCn1cc(C23CC(C(=O)Nc4nnc(S(N)(=O)=O)s4)(C2)C3)nn1)C(=O)O)C(=O)O)(c1ccc(O)cc1)c1ccc(O)cc1.[Lu+3] [Compound 127]	< 1 nM	> 10 nM	
CC[C@H]1CN(CC(=O)O)[C@@H](CC)CN(CC(=O)N2CCN(C(=O)CNC(=O)C3(C(N)=O)CCN(C(=O)CCCC(C)(c4ccc(O)cc4)c4ccc(O)cc4)CC3)[C@H](C(=O)NCCn3cc(C45CC(C(=O)Nc6nnc(S(N)(=O)=O)s6)(C4)C5)nn3)C2)[C@@H](CC)CN(CC(=O)O)[C@@H](CC)CN1CC(=O)O.[Lu+3] [Compound 128.1]	< 1 nM	> 10 nM	
CC[C@H]1CN(CC(=O)O)[C@@H](CC)CN(CC(=O)N2CCN(C(=O)C[C@H](NC(=O)C[C@H](NC(=O)CCC(C)(c3ccc(O)cc3)c3ccc(O)cc3)C(=O)O)C(=O)O)[C@H](C(=O)NCCn3cc(C45CC(C(=O)Nc6nnc(S(N)(=O)=O)s6)(C4)C5)nn3)C2)[C@@H](CC)CN(CC(=O)O)[C@@H](CC)CN1CC(=O)O.[Lu+3] [Compound 128]	< 1 nM	> 10 nM	
CC(CCCC(=O)N1CCC(C(N)=O)(C(=O)NCC(=O)N2CCN(C(=O)CCOCCOCCOCCOCCOCCOCCOCCOCCNC(=O)CN3CCN(CC(=O)O)CCN(CC(=O)O)CCN(CC(=O)O)CC3)C[C@H]2C(=O)NCCn2cc(C34CC(C(=O)Nc5nnc(S(N)(=O)=O)s5)(C3)C4)nn2)CC1)(c1ccc(O)cc1)c1ccc(O)cc1.[Lu+3] [Compound 129.1]	< 1 nM	> 10 nM	
CC(CCCC(=O)N1CCC(C(N)=O)(C(=O)NCC(=O)N2CCN(C(=O)CCOCCOCCNC(=O)CN3CCN(CC(=O)O)CCN(CC(=O)O)CCN(CC(=O)O)CC3)C[C@@H]2C(=O)NCCn2cc(C34CC(C(=O)Nc5nnc(S(N)(=O)=O)s5)(C3)C4)nn2)CC1)(c1ccc(O)cc1)c1ccc(O)cc1.[Lu+3] [Compound 129.2]	< 1 nM	> 10 nM	
CC(CCCC(=O)N1CCC(C(N)=O)(C(=O)NCC(=O)N2CCN(C(=O)CN3CCN(C(=O)CN4CCN(CC(=O)O)CCN(CC(=O)O)CCN(CC(=O)O)CC4)CC3)C[C@@H]2C(=O)NCCn2cc(C34CC(C(=O)Nc5nnc(S(N)(=O)=O)s5)(C3)C4)nn2)CC1)(c1ccc(O)cc1)c1ccc(O)cc1.[Lu+3] [Compound 129.3]	< 1 nM	> 10 nM	
CC(CCCC(=O)N1CCC(C(N)=O)(C(=O)NCC(=O)N2CCN(C(=O)CCOCCOCCCC(=O)CN3CCN(CC(=O)O)CCN(CC(=O)O)CCN(CC(=O)O)CC3)C[C@H]2C(=O)NCCn2cc(C34CC(C(=O)Nc5nnc(S(N)(=O)=O)s5)(C3)C4)nn2)CC1)(c1ccc(O)cc1)c1ccc(O)cc1 [Compound 129.4]			Kd (human CA-IX; Chelated Metal: None; SPR, 25° C., pH 7.4; read-out: CAIX KD): < 1 nM; Ratio (CAXII/CAIX) (human CA-IX; KD ratio CAXII/CAIX; Chelated Metal: None): **** (50 < ****); Kd (human CA-XII; Chelated Metal: None, 25° C., pH 7.4, read-out: CAXII KD): > 10 nM
